Data set [1] can be described thus: In vivo inhibition of NLRP3 inflammasome activation in C57BL/6 mouse assessed as mortality rate at 50 mg/kg, ip pretreated for 1 hr followed by LPS-treatment and measured every 12 hrs for 48 hrs (reference value: 100%). It counts as functional. Conditions: C57BL/6, ip, 61 h.
The nature of data set [2]: In vivo inhibition of NLRP3 inflammasome activation in C57BL/6 mouse assessed as survival rate at 50 mg/kg, ip pretreated for 1 hr followed by LPS-treatment and measured every 12 hrs for 48 hrs relative to control. The format is functional. Conditions: C57BL/6, ip, time 49 hrs.
The test system of data set [3] is THP-1. The data set is described as follows: Cytotoxicity against LPS-primed human PMA-differentiated THP-1 cells 2.5 to 5 uM by CytoTox 96 Non-Radioactive assay. Conditions: dose 2.5-5 µM. It counts as cell-based.

The results in this text go back to ChEMBL document CHEMBL4699526, “Flavonoids with Inhibitory Effects on NLRP3 Inflammasome Activation from Millettia velutina” (J Nat Prod, 2020).

Broadly, the mortality is the share of the test organisms that died.

Turning to `COc1c(/C=C/C(=O)c2ccccc2)cc(OC)c2occc12`, the mortality at 50 mg/kg in data set [1] was 24%. In data set [2], the survival at 50 mg/kg was found to be 100%. Moreover, the Activity result in data set [3] is recorded as “Non-Toxic”.
